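Values below derive from 48-hour exposures of cells grown in 96-well plates, with endpoints linearly interpolated between the two concentrations bracketing the appropriate inhibition level. TGI: total growth inhibition.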
What was measured:
Test in all cases: growth of human tumour cells (NCI), 48 h
[1] = tested on: MDA-MB-435
[2] = tested on: A549 NSCLC
[3] = tested on: SR leukemia
[4] = tested on: NCI-H522 lung
[5] = tested on: SK-MEL-5 melanoma
[6] = tested on: NCI-H460 lung
[7] = tested on: CAKI-1 renal
[8] = tested on: SN12C renal
[9] = tested on: MDA-N
[10] = tested on: A498 renal
[11] = tested on: RXF 393 renal
[12] = tested on: T-47D breast
[13] = tested on: SK-MEL-2 melanoma
[14] = tested on: M14 melanoma
[15] = tested on: HCC-2998 colon
[16] = tested on: EKVX NSCLC
[17] = tested on: U251 CNS
[18] = tested on: HOP-92 NSCLC
[19] = tested on: MCF7 breast
[20] = tested on: HOP-62 NSCLC

Row | SMILES | TGI [1] [µM] | TGI [2] [µM] | TGI [3] [µM] | TGI [4] [µM] | TGI [5] [µM] | TGI [6] [µM] | TGI [7] [µM] | TGI [8] [µM] | TGI [9] [µM] | TGI [10] [µM] | TGI [11] [µM] | TGI [12] [µM] | TGI [13] [µM] | TGI [14] [µM] | TGI [15] [µM] | TGI [16] [µM] | TGI [17] [µM] | TGI [18] [µM] | TGI [19] [µM] | TGI [20] [µM]
1 | Cc1cc(C)nc(NS(=O)(=O)c2ccc(Nc3c4ccccc4nc4ccc(C(=O)Nc5ccc(S(N)(=O)=O)cc5)cc34)cc2)n1 | > 100 | > 100 | > 100 | > 100 | > 100 | > 100 | > 100 | > 100 | > 100 | > 100 | > 100 | > 100 | > 100 | > 100 | > 100 | > 100 | > 100 | > 100 | > 100 | > 100
2 | CC(C)CCNC(=O)c1ccc(CNC(=O)/C=C/c2cccc(Oc3ccccc3)c2)cc1 | 41.6 | > 100 | > 100 | > 100 | > 100 | > 100 | > 100 | > 100 | 38.3 | > 100 | 52 | > 100 | 72.5 | > 100 | > 100 | > 100 | > 100 | > 100 | > 100 | 53.3

Source: PubChem BioAssay (NCI)
